Assays:
FimHtrCl#4 = target: T1, FimHtrCl#4 (Escherichia coli, UniProt P08191, G94E/N91S/S99N/V48A); assay: biochemical; format: binding, E. coli UPEC (Cl#4) strain
T1 construct: coding for the lectin domain of FimH (residues 1-158) with a C-terminal 6-histidine tag; made in house; host or cells: E. coli HB101 (lacking the fim operon), periplasmic extract, plasmid pMAS146
Experimental: (§1) To investigate if these variations reflect differences in sugar binding at the molecular level, the dissociation constants of a series of mannosides for the FimH lectin domain from a fecal (F18) and from a UPEC (Cl#4) strain were determined. […] For comparison, binding to FimHtrJ96 was also investigated. Both F18 and Cl#4 FimH lectin domains were cloned, expressed, and purified in the same way as FimHtrJ96 (Schembri et al., 2000). These two lectin domains differ from the lectin domain of FimHJ96 by substitutions Val27Ala, Asn70Ser and Ser78Asn. In addition, FimHCl#4 differs from the other two variants by a Gly73Glu substitution. […] Five different tri-mannosides corresponding to high-mannose substructures were synthesized, and their binding to FimHtrJ96, FimHtrF18 and FimHtrCl#4 measured using our [^3H]-mannose displacement assay (Table 3). Alpha-D-mannose binding was first directly measured for each of the FimH variants.
(§2) [^3H]alpha-D-mannose was obtained from Amersham. […] Syntheses of tri-mannosides was as reported earlier by Oscarson and co-workers (1993). Weighed amounts of tri-mannosides were dissolved in double distilled water to give stock solutions of 0.87 M man-(1,2)-man-(1,2)-man, 0.25 M man-(1,2)-man-(1,3)-man, 0.27 M man-(1,2)-man-(1,6)-man, 0.30 M man-(1,3)-man-(1,6)-man, 0.13 M man-(1,6)-man-(1,6)-man. Similarly, alkyl mannosides were dissolved in double distilled water to give stock solutions of 100 mM methyl mannoside, 59.8 mM ethyl mannoside, 45.9 mM propyl mannoside, 51.9 mM butyl mannoside, 17.3 mM pentyl mannoside, 20.8 mM hexyl mannoside, 15.3 mM heptyl mannoside, 15.2 mM octyl mannoside. pNPalphaMan and MeUmbalphaMan (6 mg each) were dissolved in 20 μl DMSO and diluted to 20 mM using double distilled water. Binding experiments were performed using six different concentrations of [^3H]-alpha-D-mannose (final concentrations 43.5 μM, 29.0 μM, 19.3 μM, 12.9 μM, 8.6 μM, 5.7 μM). FimHtrJ96 obtained by growing bacteria in minimal medium was used in all binding experiments. 180 μl protein at a concentration of about 500 nM was mixed with 20 μl of the radioactive ligand, and incubated at 37° C. for 20 min. To separate free ligand from bound, the mixture was rapidly filtrated through a Protran BA 85 Cellulose-nitrate filter (Schleicher & Schuell, Dassel, Germany), and washed once with 1 ml of ice-cold 1× PBS (phosphate buffered saline). Filter-bound radioactivity was measured by scintillation spectrometry within 24 hours. The displacement experiments were performed using six different concentrations (final concentrations in the range 0.0˜43.5 μM) of the inhibitor, in the presence of 43.5 μM [^3H]-alpha-D-mannose. 20 μl radioactive ligand, 20 μl inhibitor at decreasing concentrations, and 160 μl protein (500 nM) were mixed, and the experiments performed as above. All experiments were performed in duplicates. For determination of KD for α-D-mannose, a hyperbolic curve (y=P1x/(P2+x), where P2=KD) was fitted to the data. For the displacement experiments, the curve y=P1/(P2+x), where P2 is the concentration of the inhibitor displacing 50% of the labelled ligand, [I]0.5 was used instead. To calculate the inhibitor dissociation constant (KI) the Cheng & Prusoff equation (KI=[I]0.5/([L]/KL+1); KL is the constant of dissociation for the ligand) (Cheng and Prusoff, 1973), was used when both the concentration of the radioactive ligand (L) and the displacing agent (I) are in excess over the protein (LT>>PT;IT>>PT, T indicates total concentration). […] A plot of IT/((1−Y)*(LT/KL)−Y) against 1/Y gives a straight line with a slope of KI.

FimHtrF18 = target: T2, FimHtrF18 (Escherichia coli, UniProt P08191, N91S/S99N/V48A); assay: biochemical; format: binding, E. coli fecal (F18) strain
T2 construct: coding for the lectin domain of FimH (residues 1-158) with a C-terminal 6-histidine tag; made in house; host or cells: E. coli HB101 (lacking the fim operon), periplasmic extract, plasmid pPKL316
T2 sequence (P08191 22-179 V48A/N91S/S99N): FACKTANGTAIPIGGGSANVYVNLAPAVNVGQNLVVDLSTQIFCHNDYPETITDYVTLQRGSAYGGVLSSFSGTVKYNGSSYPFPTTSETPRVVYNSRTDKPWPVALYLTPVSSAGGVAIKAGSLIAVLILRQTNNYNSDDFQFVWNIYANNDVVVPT
Experimental: as §1, §2

T1 sequence (P08191 22-179 V48A/N91S/G94E/S99N): as the sequence (P08191 22-179 V48A/N91S/S99N) above, with G73E counted along it

## OC[C@H]1O[C@H](O)[C@@H](O)[C@@H](O)[C@@H]1O [Mannose, α-D-mannose]
FimHtrCl#4; KD CI#4, Table 3, [3H]-mannose displacement assay (mannose measured directly)
  Kd: 10.7 µM
FimHtrCl#4; KD, mannose binding measured directly, FimHtrCl#4
  Kd: 11 µM
FimHtrCl#4; Table 3, calculated from KD
  ΔG° CI#4: -7.0 kcal/mol
FimHtrF18; KD F18, Table 3, [3H]-mannose displacement assay (mannose measured directly)
  Kd: 9.8 µM
FimHtrF18; KD, mannose binding measured directly, FimHtrF18
  Kd: 10 µM
FimHtrF18; Table 3, calculated from KD
  ΔG° F18: -7.1 kcal/mol
